The values below come from article PMC5464333, “The binding orientations of structurally-related ligands can differ; A cautionary note” (Neuropharmacology, 2017).

SMILES strings stand for the structures.

What is called Ki is the dissociation constant of the complex between target and ligand, obtained from inhibition or displacement. Low values mean a stronger hold on the target, high ones a looser hold on the target. The Kd is the constant that tells how readily two partners part at equilibrium. Read a high Kd as lower affinity.

One experiment deals with T1, 5-HT3 receptor (Homo sapiens, UniProt P46098).
T1 construct: expressed in transfected cells; host or cells: HEK293, transient, pcDNA3.1
T1 sequence (P46098 24-478): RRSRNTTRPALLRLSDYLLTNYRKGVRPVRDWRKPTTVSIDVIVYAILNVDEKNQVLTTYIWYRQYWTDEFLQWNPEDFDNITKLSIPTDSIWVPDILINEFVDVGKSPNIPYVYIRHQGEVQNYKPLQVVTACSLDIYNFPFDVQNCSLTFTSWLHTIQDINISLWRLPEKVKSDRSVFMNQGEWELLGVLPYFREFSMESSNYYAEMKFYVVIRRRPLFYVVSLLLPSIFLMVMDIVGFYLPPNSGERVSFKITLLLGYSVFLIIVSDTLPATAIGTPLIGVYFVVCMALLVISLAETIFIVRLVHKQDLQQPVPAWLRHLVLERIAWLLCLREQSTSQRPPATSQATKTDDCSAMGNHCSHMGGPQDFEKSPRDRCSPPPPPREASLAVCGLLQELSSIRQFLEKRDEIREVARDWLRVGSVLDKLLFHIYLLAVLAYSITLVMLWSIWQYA
Description: Affinities from binding tropisetron, granisetron and their analogues at 5-HT3 receptors. Conditions: for Ki / pKi Mean ± SEM: 5-HT3 receptor; for Fold change: Ki relative to parent scaffold. As to the method:
(§1) Human 5-HT3A subunit cDNA (Accession: P46098, kindly provided by J. Peters, Dundee University, UK) was cloned into pcDNA3.1 for expression in HEK293 cells. […] Cells were transiently transfected with either of these cDNA constructs using polyethyleneimine (PEI: 25 kDa, linear, powder, Polysciences Inc., Eppelheim, Germany). 30 μl of PEI (1 mg ml^−1), 5 μg cDNA and 1 ml DMEM were incubated for 10 min at room temperature, added drop wise to a 90 mm plate of 70–80% conﬂuent HEK293 cells, and incubated for 2–3 days before use.
(§2) Transfected HEK 293 cells were scraped into 0.6 ml of ice-cold 10 mM HEPES buffer (pH 7.4) and frozen. After thawing, they were washed with HEPES buffer, homogenised by trituration through a 25 gauge (0.5 mm) needle, and 50 μg of cell suspension incubated in 0.5 ml HEPES buffer containing different concentrations of radioligand. […] Equilibrium reactions were incubated on ice for at least 1 h and terminated by vacuum filtration onto Whatman GF/B filters wetted with 0.3% polyethyleneimine, followed by two rapid washes with 2.5 ml ice cold buffer. Radioactivity was measured by scintillation in Ultima Gold XR (Perkin Elmer, Waltham, MA) using a Tri-Carb 2100 TR (PerkinElmer) scintillation counter. Final counts were monitored to ensure that binding never exceeded 10% of the added concentrations of radioligands.

Experiment [1] deals with α7 nACh receptor. The settings on record: α7 nACh receptor; ref Macor et al., 2001; cited from earlier work.
In experiment [2] the target is α7 nACh receptor (UniProt P22770+P23979, M226I/T225I). As to the method:
as §1, §2
All data were analysed using GraphPad Prism v5. Individual saturation binding experiments were fitted to the equation below and the fitted values averaged to yield mean ± sem of n independent experiments: y=[…] where Bmax is maximum binding at equilibrium, Kd is the equilibrium dissociation constant and [L] is the free concentration of radioligand. Affinities were compared using 1-way ANOVA and a Dunnett's Post-Test.

Experiment [3] relates to Untransfected HEK293 cells. In words: Radioligand binding at untransfected HEK293 cells. On the set-up: species or system human. As to the method:
Human embryonic kidney (HEK) 293 cells were grown on 90 mm round tissue culture plates as monolayers in DMEM/F12 (Gibco, Life Technologies, CA, USA) supplemented with 10% fetal bovine serum (FBS; Sigma Aldrich) at 37 °C in a moist atmosphere containing 5% CO2.

Chain of α7 nACh receptor (UniProt P22770+P23979, M226I/T225I) (P22770+P23979 fused P22770:T225I/P22770:M226I): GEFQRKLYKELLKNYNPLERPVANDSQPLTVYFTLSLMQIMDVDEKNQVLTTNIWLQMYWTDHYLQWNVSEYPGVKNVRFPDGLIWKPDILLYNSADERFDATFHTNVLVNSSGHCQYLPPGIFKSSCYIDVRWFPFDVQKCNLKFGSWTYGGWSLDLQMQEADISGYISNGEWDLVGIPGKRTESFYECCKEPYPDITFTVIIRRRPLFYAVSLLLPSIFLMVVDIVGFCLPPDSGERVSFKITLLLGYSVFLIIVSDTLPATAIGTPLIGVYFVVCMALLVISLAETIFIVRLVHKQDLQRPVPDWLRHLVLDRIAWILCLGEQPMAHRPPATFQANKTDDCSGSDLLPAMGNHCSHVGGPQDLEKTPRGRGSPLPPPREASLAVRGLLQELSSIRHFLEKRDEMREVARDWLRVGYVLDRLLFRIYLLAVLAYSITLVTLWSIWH

Take `COc1ccc2[nH]cc(C(=O)O[C@H]3C[C@H]4CC[C@@H](C3)N4C)c2c1` [Compound 1, (1R,3r,5S)-8-methyl-8-azabicyclo[3.2.1]octan-3-yl 5-methoxy-1H-indole-3-carboxylate]: on 5-HT3 receptor, the affinity corresponds to a Ki of 95.5 nM, the “pKi Mean ± SEM” value is on record as 7.02 ± 0.03 and the Fold change was determined as 133 fold.

Regarding `COc1ccc2c(C(=O)O[C@H]3C[C@H]4CC[C@@H](C3)N4C)c[nH]c2c1` [Compound 2, (1R,3r,5S)-8-methyl-8-azabicyclo[3.2.1]octan-3-yl 6-methoxy-1H-indole-3-carboxylate], at 5-HT3 receptor, the affinity, expressed as Ki, was 182 nM; the “pKi Mean ± SEM” value was 6.74 ± 0.04; the Fold change is recorded as 253 fold.

Take `COc1cccc2c(C(=O)O[C@H]3C[C@H]4CC[C@@H](C3)N4C)c[nH]c12` [Compound 3, (1R,3r,5S)-8-methyl-8-azabicyclo[3.2.1]octan-3-yl 7-methoxy-1H-indole-3-carboxylate]: on 5-HT3 receptor, affinity was put at a Ki of 30.2 nM, the “pKi Mean ± SEM” value is given as 7.52 ± 0.12 and the Fold change amounted to 42 fold.

As to `O=C(O[C@H]1C[C@H]2CC[C@@H](C1)N2Cc1ccccc1)c1c[nH]c2ccccc12` [Compound 4, (1R,3r,5S)-8-benzyl-8-azabicyclo[3.2.1]octan-3-yl 1H-indole-3-carboxylate], at 5-HT3 receptor, the Ki was 1440 nM, the “pKi Mean ± SEM” value worked out at 5.84 ± 0.20 and the Fold change is on record as 2007 fold.

In the case of `COc1cccc2c(C(=O)N[C@H]3C[C@H]4CCC[C@@H](C3)N4C)nn(C)c12` [Compound 7, 7-methoxy-1-methyl-N-((1R,3r,5S)-9-methyl-9-azabicyclo[3.3.1]nonan-3-yl)-1H-indazole-3-carboxamide], at 5-HT3 receptor, the Ki was determined as 120 nM, the “pKi Mean ± SEM” value turned out to be 6.92 ± 0.24 and the Fold change is 255 fold.

Turning to `CN1C2CCC1CC(NC(=O)c1nn(C)c3ccccc13)C2` (centres unmarked) [LY-278,584], the binding result with α7 nACh receptor [1] is given as “cannot be detected”.

`Clc1ccc(C2CC3CCC2N3)cn1` (centres unmarked) [[^3H]epibatidine]: on α7 nACh receptor [2], the affinity, expressed as Kd, was 8.81 ± 0.13 nM.

Consider `CN1C2CCCC1CC(NC(=O)c1nn(C)c3ccccc13)C2` (centres unmarked) [[^3H]granisetron], for which the saturable binding result in experiment [3] is “no saturable binding”.

For the molecule `[3H]C([3H])([3H])N1C2CCC1CC(OC(=O)c1c[nH]c3ccccc13)C2` (centres unmarked) [[^3H]tropisetron], the saturation binding result on α7 nACh receptor [2] is “could not be detected”. Besides, the saturable binding entry in experiment [3] is on record as “no saturable binding”.
